Legend:
[1] = target: T1, mPTPRB (Mus musculus, UniProt B2RU80); experiment: In vitro PTPase assay (DiFMUP), PTPRB; type: biochemical; settings: 60-min preincubation
T1 construct: The ICRs of PTPRG, PTPRS, and PTPRB and the catalytic domains of PTPN1 and PTPN6; GST (N); made in house; host or cells: Escherichia coli BL21
Method: Figure 4 NAZ2329, an allosteric inhibitor of R5 RPTP subfamily members. (A) Structure of NAZ2329. (B) Effect of preincubation of NAZ2329 on its inhibitory activity against PTPRZ. Recombinant human PTPRZ1 enzyme (the whole intracellular region) was premixed with NAZ2329 for the indicated times and followed by addition of a fluorogenic DiFMUP (non-specific PTP substrate, 6,8-difluoro-4-methylumbiliferyl phosphate) to measure PTP inhibitory activity. (C) Time dependence. The PTPRZ1 enzyme was added to the inhibitor–substrate mixture, and the inhibitory activity was determined at each time point relative to the vehicle control. (D) Reversibility of inhibition. […] The mixture was then 20-fold diluted, and recovered PTP activity was expressed as the relative activity compared with the vehicle-treated enzyme. […] PTPRZ1 enzymes were preincubated with NAZ2329 for 60 min, and the PTP activity was measured using DiFMUP. […]
Recombinant proteins corresponding to the entire intracellular regions (ICRs) of PTPRZ1, PTPRA, and PTPRM were expressed using a baculovirus-silkworm expression system, and purified as described. The ICRs of PTPRG, PTPRS, and PTPRB and the catalytic domains of PTPN1 and PTPN6 were expressed as glutathione-S-transferase (GST) fusion proteins from each pGEX plasmid in Escherichia coli strain BL21 (ref. [6]). […]

[2] = tested on: C6 cells; experiment: Sphere formation, SOX2 expression and self-renewal, C6 cells; type: cell-based, rat
Method: Figure 7 Cellular effects of NAZ2329 on the malignant phenotypes of C6 cells. (A) Phosphorylation of paxillin at Tyr-118. C6 cells were incubated with NAZ2329 for the indicated periods. Immunoprecipitated paxillin was analyzed by Western blotting using anti-pY118-paxillin and anti-paxillin. Blots are representative of five independent cultures. […] (B) Cell proliferation assay. C6 cells were incubated for 48 h with NAZ2329 in normal medium containing 2% FBS. […] (C) Boyden chamber assay. Cells were allowed to migrate for 3 h. DAPI-stained nuclei are shown before (total) and after (migrated) the removal of cells remaining in the top chamber. Scale bars, 100 µm. […] (D,E) Sphere formation (D) and SOX2 expression (E). C6 cells were cultured in CSC medium for 7 days with indicated concentrations of NAZ2329. Images are representative of five independent cultures. Scale bars, 100 µm. […] (F) Self-renewal of C6 spheres. C6 spheres were initially developed in CSC medium for 7 days, followed by an incubation with NAZ2329 in CSC medium for 5 days. Images are representative of five independent cultures. Scale bars, 100 µm. […] Full-length blots and gels are presented in Supplementary Fig. S7.
Cells were inoculated at 5 × 10^3 cells per 96-well uncoated polystyrene plate (# 9018, Corning) or 5 × 10^4 cells per 35-mm plastic petri dish (#351008, Corning), and cultured in a serum-free medium containing DMEM/F12 with 1x B27 supplement (#17504044, Thermo Fisher Scientific), EGF (20 ng/ml), and basic fibroblast growth factor (bFGF, 20 ng/ml, #064-05381, Wako pure chemical). After a 7-day culture, cells were fixed with 10% neutral formalin and pictured under a conventional microscope. The number of spheroids of approximately 70 µm in diameter were counted manually using Adobe Photoshop CS6 (Adobe).

[3] = target: T2, human PTPRZ1 (whole intracellular region, D1+D2) (Homo sapiens, UniProt P23471); experiment: In vitro PTPase assay (DiFMUP), PTPRZ1 whole intracellular region; type: biochemical
T2 construct: Recombinant proteins corresponding to the entire intracellular regions (ICRs) of PTPRZ1, PTPRA, and PTPRM; made in house; host or cells: baculovirus-silkworm expression system
T2 sequence (P23471 1663-2315 limits assumed): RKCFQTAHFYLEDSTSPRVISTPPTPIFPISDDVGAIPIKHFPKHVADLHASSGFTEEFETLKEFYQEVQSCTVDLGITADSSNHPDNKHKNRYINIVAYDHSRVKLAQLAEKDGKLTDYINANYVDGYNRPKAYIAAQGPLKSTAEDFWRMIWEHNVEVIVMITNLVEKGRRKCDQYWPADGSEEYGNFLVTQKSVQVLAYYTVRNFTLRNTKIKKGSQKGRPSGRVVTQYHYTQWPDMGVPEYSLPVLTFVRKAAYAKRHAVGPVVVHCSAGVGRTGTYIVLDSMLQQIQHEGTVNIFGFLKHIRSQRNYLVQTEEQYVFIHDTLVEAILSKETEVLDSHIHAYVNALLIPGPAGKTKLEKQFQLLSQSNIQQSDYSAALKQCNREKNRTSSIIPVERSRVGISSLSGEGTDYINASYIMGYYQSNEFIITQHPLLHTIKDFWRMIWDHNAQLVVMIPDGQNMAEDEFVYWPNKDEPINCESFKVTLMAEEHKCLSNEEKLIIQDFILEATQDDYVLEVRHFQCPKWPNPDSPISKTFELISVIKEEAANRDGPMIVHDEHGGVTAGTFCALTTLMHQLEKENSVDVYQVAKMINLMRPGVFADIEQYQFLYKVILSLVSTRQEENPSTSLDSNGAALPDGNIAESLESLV
Method: Figure 4 NAZ2329, an allosteric inhibitor of R5 RPTP subfamily members. (A) Structure of NAZ2329. (B) Effect of preincubation of NAZ2329 on its inhibitory activity against PTPRZ. Recombinant human PTPRZ1 enzyme (the whole intracellular region) was premixed with NAZ2329 for the indicated times and followed by addition of a fluorogenic DiFMUP (non-specific PTP substrate, 6,8-difluoro-4-methylumbiliferyl phosphate) to measure PTP inhibitory activity. (C) Time dependence. The PTPRZ1 enzyme was added to the inhibitor–substrate mixture, and the inhibitory activity was determined at each time point relative to the vehicle control. (D) Reversibility of inhibition. PTPRZ1 enzymes were preincubated with NAZ2329 at the indicated concentrations for 30 min. The mixture was then 20-fold diluted, and recovered PTP activity was expressed as the relative activity compared with the vehicle-treated enzyme. (E) Lineweaver-Burk plot analysis. PTPRZ1 enzymes were preincubated with NAZ2329 for 60 min, and the PTP activity was measured using DiFMUP. (F) Concentration-inhibition curves of NAZ2329 for representative PTP members, including human PTPRZ and PTPRG (another R5 RPTP subfamily member), human PTPRS (R2A subfamily), human PTPRM (R2B subfamily), mouse PTPRB (R3 subfamily), human PTPRA (R4 subfamily), human PTPN1 (non-transmembrane PTP, NT1 subfamily), and human PTPN6 (NT2 subfamily), were generated. Assays were performed using DiFMUP. IC50 values obtained are shown in the inset. Data represent the averages of two or three separate experiments. TEXT PRINTED IN THE PICTURE: (F) NAZ2329: IC50 (μM): hPTPRZ1 7.5; IC50 (μM): hPTPRG 4.8; IC50 (μM): hPTPRA 35.7; IC50 (μM): hPTPRM 56.7; IC50 (μM): hPTPRS 23.7; IC50 (μM): mPTPRB 35.4; IC50 (μM): hPTPN6 15.2; IC50 (μM): hPTPN1 14.5
Recombinant proteins corresponding to the entire intracellular regions (ICRs) of PTPRZ1, PTPRA, and PTPRM were expressed using a baculovirus-silkworm expression system, and purified as described. The ICRs of PTPRG, PTPRS, and PTPRB and the catalytic domains of PTPN1 and PTPN6 were expressed as glutathione-S-transferase (GST) fusion proteins from each pGEX plasmid in Escherichia coli strain BL21 (ref. [6]). GST fusion proteins were purified by glutathione affinity chromatography as described. Chondroitinase ABC (chABC) was purchased from Sigma-Aldrich (catalog #C3667). Anti-PTPRZ-S, rabbit polyclonal antibodies against the extracellular region of PTPRZ was described previously (ref. [44]). The following are the specificities and sources of the commercially available antibodies used in the present study: Anti-RPTPβ (a monoclonal antibody against the intracellular domain of PTPRZ1 receptors, #610179, BD Biosciences), anti-SOX2 (#ab97959, Abcam), anti-POU3F2 (#12137, Cell Signaling), anti-OLIG2 (#AB9610, Millipore), anti-SALL2 (#12679–1-AP, Proteintech Group), anti-GAPDH (#ab9482, Abcam) anti-phosphotyrosine (PY20; #ab16389, Abcam), and anti-pY118-paxillin (#2541, Cell Signaling), mouse anti-paxillin antibody (#610569, BD Bioscience), anti-MBP (#sc-13914, Santa Cruz Biotechnology), and anti-NG2 proteoglycan (#AB5320, Millipore). […]

T1 sequence (B2RU80 1644-1997 limits assumed): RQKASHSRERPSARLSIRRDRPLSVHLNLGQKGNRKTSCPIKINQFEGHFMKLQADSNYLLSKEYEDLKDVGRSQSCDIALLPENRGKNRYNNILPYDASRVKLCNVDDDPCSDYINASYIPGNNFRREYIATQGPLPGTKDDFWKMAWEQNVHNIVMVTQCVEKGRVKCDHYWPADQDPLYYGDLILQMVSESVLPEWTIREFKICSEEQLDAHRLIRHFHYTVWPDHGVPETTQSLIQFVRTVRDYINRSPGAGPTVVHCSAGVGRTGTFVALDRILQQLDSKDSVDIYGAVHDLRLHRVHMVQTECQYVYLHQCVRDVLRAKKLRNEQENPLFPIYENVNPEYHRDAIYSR

IC50 [1]: 35.4 µM
reversibility: enzymatic activity after 20-fold dilution of enzyme-compound mixture ([3]; 30 min preincubation, then 20-fold dilution): fully recovered to the control level
type of inhibition (Lineweaver-Burk plot) ([3]; 60 min preincubation, DiFMUP): noncompetitive-type inhibition
IC50 ([3]; whole intracellular region, DiFMUP, 60-min preincubation, read-out: IC50 hPTPRZ1 (D1+D2)): 7.5 µM
SMILES: CCOc1ccc(C(F)(F)F)cc1CSc1ccsc1C(=O)NS(=O)(=O)c1ccccc1 [NAZ2329]
SOX2 expression ([2]; C6 cells, CSC medium, 7 days): decrease in SOX2 expression
sphere formation ([2]; C6 cells, CSC medium, 7 days): dose-dependently inhibited sphere formation
self-renewal of sphere-forming cells ([2]; C6 spheres, 5 days with compound): suppressed self-renewal

From publication PMC5514153, “Targeting PTPRZ inhibits stem cell-like properties and tumorigenicity in glioblastoma cells” (Scientific Reports, 2017)
